Experimental data reported in ChEMBL document CHEMBL1201862, “PubChem BioAssay data set” (2004).
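Following 48 hours of exposure in 96-well plates, responses at five concentrations were used to interpolate endpoints linearly. GI50 marks 50% less growth.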 Calls of active or inactive are those of the source. Rule as the data show it: active = GI50 up to about 1.1 µM and inactive = higher.

How the values were obtained:
Assay in all cases: NCI anticancer screen, dose series, 48 h
[1] = test system: A498
[2] = test system: CCRF-CEM
[3] = test system: EKVX
[4] = test system: HOP-92
[5] = test system: K562
[6] = test system: LOX IMVI
[7] = test system: M14
[8] = test system: MDA-N
[9] = test system: MOLT-4
[10] = test system: NCI-H226
[11] = test system: NCI-H23
[12] = test system: OVCAR-3
[13] = test system: OVCAR-4
[14] = test system: RXF 393
[15] = test system: SF-268
[16] = test system: SF-295
[17] = test system: SN12C
[18] = test system: SNB-19
[19] = test system: SNB-75
[20] = test system: UACC-257

In the case of `COC(=O)/C=C1\C(=O)C=C2[C@@H]3C[C@H]4C[C@H](CC[C@@]4(C)N21)C3(C)NC(C)=O` (stereo not given in full), the GI50 [1] was 19 µM (inactive), the GI50 [2] was 4.4 µM (inactive) and the GI50 [3] was 11.4 µM (inactive). For the same compound, the GI50 [4] was 18 µM (inactive), the GI50 [5] was 7.66 µM (inactive) and the GI50 [6] was 17 µM (inactive). The GI50 [7] was 8.91 µM (inactive), the GI50 [8] was 11.2 µM (inactive) and the GI50 [9] was 3.33 µM (inactive). For the same compound, the GI50 [10] was 25.5 µM (inactive), the GI50 [11] was 23.7 µM (inactive) and the GI50 [12] was 11.8 µM (inactive). The GI50 [13] was 17.6 µM (inactive), the GI50 [14] was 4.51 µM (inactive) and the GI50 [15] was 6.68 µM (inactive). For the same compound, the GI50 [16] was 19.5 µM (inactive), the GI50 [17] was 11.7 µM (inactive) and the GI50 [18] was 25.9 µM (inactive). The GI50 [19] was 13.2 µM (inactive) and the GI50 [20] was 15.6 µM (inactive).
In the case of `CC1=C(C(=O)OC2CC3CCC2(C)C3(C)C)C2Nc3ccccc3N(C)C2O1` (stereo not given), the GI50 [1] was 6.12 µM (inactive), the GI50 [2] was 2.04 µM (inactive) and the GI50 [3] was 5.12 µM (inactive). The GI50 [4] was 3.22 µM (inactive), the GI50 [5] was 3.66 µM (inactive) and the GI50 [6] was 1.71 µM (inactive). The GI50 [7] was 1.63 µM (inactive), the GI50 [8] was 1.77 µM (inactive) and the GI50 [9] was 1.84 µM (inactive). For the same compound, the GI50 [10] was 4.3 µM (inactive), the GI50 [11] was 2.39 µM (inactive) and the GI50 [12] was 2.24 µM (inactive). The GI50 [13] was 1.67 µM (inactive), the GI50 [14] was 2.63 µM (inactive) and the GI50 [15] was 4.8 µM (inactive). For the same compound, the GI50 [16] was 1.72 µM (inactive), the GI50 [17] was 1.78 µM (inactive) and the GI50 [18] was 3.48 µM (inactive). For the same compound, the GI50 [19] was 3.43 µM (inactive) and the GI50 [20] was 1.79 µM (inactive).
In the case of `CC(C)OP(=O)(OC(C)C)/C(C#N)=C/c1c[nH]c2ccccc12`, the GI50 [1] was > 100 µM (inactive), the GI50 [2] was 35.6 µM (inactive) and the GI50 [3] was 48.9 µM (inactive). For the same compound, the GI50 [4] was 36.8 µM (inactive), the GI50 [5] was > 100 µM (inactive) and the GI50 [6] was > 100 µM (inactive). The GI50 [7] was 60.7 µM (inactive), the GI50 [8] was > 100 µM (inactive) and the GI50 [9] was 88.3 µM (inactive). The GI50 [10] was 94 µM (inactive), the GI50 [11] was 46.2 µM (inactive) and the GI50 [12] was 34 µM (inactive). The GI50 [13] was 86.5 µM (inactive), the GI50 [14] was > 100 µM (inactive) and the GI50 [15] was > 100 µM (inactive). For the same compound, the GI50 [16] was 38.9 µM (inactive), the GI50 [17] was > 100 µM (inactive) and the GI50 [18] was > 100 µM (inactive). The GI50 [19] was 72.6 µM (inactive) and the GI50 [20] was 54.3 µM (inactive).
For `CCOC(=O)/C(=C\c1c[nH]c2ccccc12)P(=O)(OCC)OCC`, the GI50 [1] was 28.8 µM (inactive), the GI50 [2] was 16.7 µM (inactive) and the GI50 [3] was 59.8 µM (inactive). For the same compound, the GI50 [4] was 29.2 µM (inactive), the GI50 [5] was 50.9 µM (inactive) and the GI50 [6] was 20.6 µM (inactive). The GI50 [7] was 39.6 µM (inactive), the GI50 [8] was 35.8 µM (inactive) and the GI50 [9] was 55.1 µM (inactive). For the same compound, the GI50 [10] was 28.3 µM (inactive), the GI50 [11] was 29.6 µM (inactive) and the GI50 [12] was 19.3 µM (inactive). For the same compound, the GI50 [13] was 23.9 µM (inactive), the GI50 [14] was 33.6 µM (inactive) and the GI50 [15] was 29.5 µM (inactive). For the same compound, the GI50 [16] was 39.9 µM (inactive), the GI50 [17] was 30.5 µM (inactive) and the GI50 [18] was 62.7 µM (inactive). For the same compound, the GI50 [19] was 26.5 µM (inactive) and the GI50 [20] was 45.3 µM (inactive).
`COc1ccc2cc(Oc3ccc(Cl)cc3)c(=O)oc2c1` was tested, and the GI50 [1] was 93.5 µM (inactive), the GI50 [2] was > 100 µM (inactive) and the GI50 [3] was > 100 µM (inactive). The GI50 [4] was > 100 µM (inactive), the GI50 [5] was > 100 µM (inactive) and the GI50 [6] was > 100 µM (inactive). The GI50 [7] was > 100 µM (inactive), the GI50 [8] was > 100 µM (inactive) and the GI50 [9] was > 100 µM (inactive). The GI50 [10] was > 100 µM (inactive), the GI50 [11] was > 100 µM (inactive) and the GI50 [12] was > 100 µM (inactive). For the same compound, the GI50 [13] was > 100 µM (inactive), the GI50 [14] was > 100 µM (inactive) and the GI50 [15] was 50.8 µM (inactive). The GI50 [16] was 60.5 µM (inactive), the GI50 [17] was > 100 µM (inactive) and the GI50 [18] was > 100 µM (inactive). For the same compound, the GI50 [19] was > 100 µM (inactive) and the GI50 [20] was > 100 µM (inactive).
For `Cc1nn(C(=O)c2ccccc2O)c2c1C(c1ccco1)SC(=N)N2` (stereo not given), the GI50 [1] was 6.07 µM (inactive), the GI50 [2] was 2.95 µM (inactive) and the GI50 [3] was > 10 µM (inactive). The GI50 [4] was 4.59 µM (inactive), the GI50 [5] was 2.93 µM (inactive) and the GI50 [6] was 3.73 µM (inactive). For the same compound, the GI50 [7] was 3.5 µM (inactive), the GI50 [8] was 7.4 µM (inactive) and the GI50 [9] was 3.61 µM (inactive). For the same compound, the GI50 [10] was 3.43 µM (inactive), the GI50 [11] was > 10 µM (inactive) and the GI50 [12] was 3.32 µM (inactive). For the same compound, the GI50 [13] was 3.04 µM (inactive), the GI50 [14] was 7.1 µM (inactive) and the GI50 [15] was 4.09 µM (inactive). The GI50 [16] was > 10 µM (inactive), the GI50 [17] was 5.93 µM (inactive) and the GI50 [18] was > 10 µM (inactive). The GI50 [19] was 1.45 µM (inactive) and the GI50 [20] was 9.89 µM (inactive).
For `C[C@H]1[C@H](C)N1CC(O)Cn1ccnc1[N+](=O)[O-]` (stereo not given in full), the GI50 [1] was > 100 µM (inactive), the GI50 [2] was > 91.6 µM (inactive) and the GI50 [3] was > 100 µM (inactive). For the same compound, the GI50 [4] was 1 µM (active), the GI50 [5] was > 100 µM (inactive) and the GI50 [6] was > 100 µM (inactive). For the same compound, the GI50 [7] was > 100 µM (inactive), the GI50 [8] was > 100 µM (inactive) and the GI50 [9] was > 67.6 µM (inactive). For the same compound, the GI50 [10] was > 100 µM (inactive), the GI50 [11] was > 100 µM (inactive) and the GI50 [12] was > 100 µM (inactive). For the same compound, the GI50 [13] was > 100 µM (inactive), the GI50 [14] was > 100 µM (inactive) and the GI50 [15] was > 100 µM (inactive). The GI50 [16] was > 100 µM (inactive), the GI50 [17] was > 100 µM (inactive) and the GI50 [18] was > 100 µM (inactive). For the same compound, the GI50 [19] was > 100 µM (inactive) and the GI50 [20] was > 100 µM (inactive).
For `C=C(Cl)c1c(OC)cccc1OCc1ccccc1`, the GI50 [1] was 62.4 µM (inactive), the GI50 [2] was 75 µM (inactive) and the GI50 [3] was 59.4 µM (inactive). For the same compound, the GI50 [4] was 22.2 µM (inactive), the GI50 [5] was 48.2 µM (inactive) and the GI50 [6] was 69.7 µM (inactive). For the same compound, the GI50 [7] was > 100 µM (inactive), the GI50 [8] was 42 µM (inactive) and the GI50 [9] was 64.7 µM (inactive). For the same compound, the GI50 [10] was 48.2 µM (inactive), the GI50 [11] was 26.1 µM (inactive) and the GI50 [12] was > 100 µM (inactive). For the same compound, the GI50 [13] was 98.9 µM (inactive), the GI50 [14] was 16.7 µM (inactive) and the GI50 [15] was > 100 µM (inactive). For the same compound, the GI50 [16] was > 100 µM (inactive), the GI50 [17] was > 100 µM (inactive) and the GI50 [18] was > 100 µM (inactive). For the same compound, the GI50 [19] was 23.5 µM (inactive) and the GI50 [20] was 20 µM (inactive).
For `COc1ccc(OC)c(NC2=NCCO2)c1`, the GI50 [1] was > 100 µM (inactive), the GI50 [2] was > 100 µM (inactive) and the GI50 [3] was > 100 µM (inactive). The GI50 [4] was < 0.01 µM (active), the GI50 [5] was > 100 µM (inactive) and the GI50 [6] was > 100 µM (inactive). The GI50 [7] was > 100 µM (inactive), the GI50 [8] was 45.4 µM (inactive) and the GI50 [9] was > 100 µM (inactive). For the same compound, the GI50 [10] was > 100 µM (inactive), the GI50 [11] was 52.4 µM (inactive) and the GI50 [12] was > 100 µM (inactive). For the same compound, the GI50 [13] was > 100 µM (inactive), the GI50 [14] was > 100 µM (inactive) and the GI50 [15] was > 100 µM (inactive). For the same compound, the GI50 [16] was > 100 µM (inactive), the GI50 [17] was > 100 µM (inactive) and the GI50 [18] was 10.6 µM (inactive). For the same compound, the GI50 [19] was > 100 µM (inactive) and the GI50 [20] was > 100 µM (inactive).
`O=[N+]([O-])c1ccc(CSc2c3ccccc3nc3ccccc23)cc1` was tested, and the GI50 [1] was 23.7 µM (inactive), the GI50 [2] was 2.69 µM (inactive) and the GI50 [3] was 15.9 µM (inactive). The GI50 [4] was 3.75 µM (inactive), the GI50 [5] was 5.01 µM (inactive) and the GI50 [6] was 2.93 µM (inactive). For the same compound, the GI50 [7] was 4.56 µM (inactive), the GI50 [8] was 9.86 µM (inactive) and the GI50 [9] was 2.31 µM (inactive). For the same compound, the GI50 [10] was 16.7 µM (inactive), the GI50 [11] was 7.05 µM (inactive) and the GI50 [12] was 4.53 µM (inactive). For the same compound, the GI50 [13] was 15.6 µM (inactive), the GI50 [14] was 5.47 µM (inactive) and the GI50 [15] was 7.64 µM (inactive). For the same compound, the GI50 [16] was 21.1 µM (inactive), the GI50 [17] was 3.52 µM (inactive) and the GI50 [18] was 15.8 µM (inactive). The GI50 [19] was 19 µM (inactive) and the GI50 [20] was 3.33 µM (inactive).
In the case of `NC(=O)ON=C1CCN(Cc2ccccc2)CC1`, the GI50 [1] was > 100 µM (inactive), the GI50 [2] was > 100 µM (inactive) and the GI50 [3] was > 100 µM (inactive). The GI50 [4] was > 100 µM (inactive), the GI50 [5] was > 100 µM (inactive) and the GI50 [6] was > 100 µM (inactive). For the same compound, the GI50 [7] was > 100 µM (inactive), the GI50 [8] was > 100 µM (inactive) and the GI50 [9] was > 100 µM (inactive). For the same compound, the GI50 [10] was > 100 µM (inactive), the GI50 [11] was > 100 µM (inactive) and the GI50 [12] was > 100 µM (inactive). For the same compound, the GI50 [13] was > 100 µM (inactive), the GI50 [14] was > 100 µM (inactive) and the GI50 [15] was > 100 µM (inactive). For the same compound, the GI50 [16] was > 100 µM (inactive), the GI50 [17] was > 100 µM (inactive) and the GI50 [18] was > 100 µM (inactive). For the same compound, the GI50 [19] was 74.8 µM (inactive) and the GI50 [20] was > 100 µM (inactive).
